Measurements as given in PMC10892419, “UHPLC-MS/MS Assay for Quantification of Legubicin, a Novel Doxorubicin-Based Legumain-Activated Prodrug, and Its Application to Pharmacokinetic and Tissue Distribution Studies” (Molecules, 2024).

How the values were obtained:
[1] = Storage stability of analytes in mouse plasma (method validation); details: for Freeze and thaw stability at -80 °C/ room temperature, Bias / Freeze and thaw stability at -80 °C/ room temperature, Measured concentration / Long term stability at -80 °C (30 days), Bias / Short term stability at room temperature (6 h), Bias / Long term stability at -80 °C (30 days), Measured concentration / Short term stability at room temperature (6 h), Measured concentration: mouse plasma; for Freeze and thaw stability at -80 °C/ room temperature, Bias / Freeze and thaw stability at -80 °C/ room temperature, Measured concentration: 1 cycle; for Freeze and thaw stability at -80 °C/ room temperature, Bias / Long term stability at -80 °C (30 days), Bias / Short term stability at room temperature (6 h), Bias / Auto-sampler stability at 2-8 °C, Bias: n = 6; for Freeze and thaw stability at -80 °C/ room temperature, Measured concentration / Long term stability at -80 °C (30 days), Measured concentration / Short term stability at room temperature (6 h), Measured concentration / Auto-sampler stability at 2-8 °C, Measured concentration: n = 6, mean ± SD; for Auto-sampler stability at 2-8 °C, Bias / Auto-sampler stability at 2-8 °C, Measured concentration: processed mouse plasma, 12 h
Procedure: By investigating low- and high-concentration stability QCs in six replicates at different storage conditions, autosampler, short-term (bench-top), freeze and thaw, and long-term stability evaluations were conducted.

[2] = in vivo; cited from earlier work
legumain = target: T1, legumain (Homo sapiens, UniProt Q99538); assay: Stability of Leu-DOX in the legumain enzymatic system; assay type: in vitro ADME; details: plasma samples spiked with Leu-DOX, enzymatic digestion procedure (24 h, 37 °C), n = 3
T1 sequence (Q99538 18-433): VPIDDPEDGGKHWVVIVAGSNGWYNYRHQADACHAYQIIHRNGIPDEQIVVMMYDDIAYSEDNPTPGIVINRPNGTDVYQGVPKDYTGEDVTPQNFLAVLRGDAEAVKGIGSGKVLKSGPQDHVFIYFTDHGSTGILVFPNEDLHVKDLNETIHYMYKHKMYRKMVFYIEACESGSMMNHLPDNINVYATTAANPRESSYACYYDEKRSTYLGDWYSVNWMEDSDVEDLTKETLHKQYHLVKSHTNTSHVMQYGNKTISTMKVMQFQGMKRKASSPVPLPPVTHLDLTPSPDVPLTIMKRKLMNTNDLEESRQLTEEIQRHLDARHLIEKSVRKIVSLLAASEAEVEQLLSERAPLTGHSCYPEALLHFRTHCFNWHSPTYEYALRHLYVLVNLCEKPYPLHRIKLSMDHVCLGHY
Procedure: The specific liquid-phase conditions are shown as follows. Column: Agilent Eclipse Plus 4.6 × 250 mm, 5 µm; mobile phase A: 0.1% trifluoroacetic acid in water; mobile phase B: acetonitrile. Flow rate: 1.0 mL/min; HPLC: Waters 2695; detector: Waters 2475 detector (ex470/em600); column temperature: 30 °C; injection volume: 10 µL; run time: 30 min; needle wash solvent: 50% acetonitrile in water; gradient elution: starting 20% B, increasing from 20% to 45% B in 15 min, increasing from 45% to 80% B in 15 to 20 min, maintained for 5 min, then decreasing to 20% B in 0.1 min, and continuing until the end of 30 min. (b) Kinetics of Leu-Dox release from legubicin (black) and legubicin–albumin conjugate (blue) in the presence of legumain (n = 4). (c) Stability of Leu-Dox in this enzymatic system (n = 3).
The assessment of Leu-DOX stability in the aforementioned enzymatic systems warrants careful consideration. Consequently, plasma samples containing Leu-DOX were intentionally supplemented to assess the potential impacts of these methods on the precise determination of the enzymatic digestion of the legubicin plasma protein complex, which is utilized for determining the total Leu-DOX post-digestion. […]

[3] = high QC (Leu-DOX 2400, DOX 800 pmol/mL)
[4] = high QC (nominal Leu-DOX 2400, DOX 800 pmol/mL)
[5] = low QC (Leu-DOX 9, DOX 3 pmol/mL)
[6] = low QC (nominal Leu-DOX 9, DOX 3 pmol/mL)
[7] = high QC (Leu-DOX 2400, DOX 800 pmol/mL, conjugate 80 nmol/mL)
[8] = low QC (Leu-DOX 9, DOX 3 pmol/mL, conjugate 0.2 nmol/mL)

| SMILES | Freeze and thaw stability at -80 °C/ room temperature, Bias [1, 3] [%] | Freeze and thaw stability at -80 °C/ room temperature, Measured concentration [1, 4] [pmol/mL] | Freeze and thaw stability at -80 °C/ room temperature, Bias [1, 5] [%] | Freeze and thaw stability at -80 °C/ room temperature, Measured concentration [1, 6] [pmol/mL] | Long term stability at -80 °C (30 days), Bias [1, 7] [%] | Short term stability at room temperature (6 h), Bias [1, 7] [%] | Long term stability at -80 °C (30 days), Measured concentration [1, 4] [pmol/mL] | Short term stability at room temperature (6 h), Measured concentration [1, 4] [pmol/mL] | Long term stability at -80 °C (30 days), Bias [1, 8] [%] | Short term stability at room temperature (6 h), Bias [1, 8] [%] | Long term stability at -80 °C (30 days), Measured concentration [1, 6] [pmol/mL] | Short term stability at room temperature (6 h), Measured concentration [1, 6] [pmol/mL] | Auto-sampler stability at 2-8 °C, Bias [1, 3] [%] | Auto-sampler stability at 2-8 °C, Measured concentration [1, 4] [pmol/mL] | Auto-sampler stability at 2-8 °C, Bias [1, 5] [%] | Auto-sampler stability at 2-8 °C, Measured concentration [1, 6] [pmol/mL] | Vz [2] [L/kg] | clearance (CL) [2] | stability in the legumain enzymatic digestion system (legumain) |
| --- | --- | --- | --- | --- | --- | --- | --- | --- | --- | --- | --- | --- | --- | --- | --- | --- | --- | --- | --- |
| COc1cccc2c1C(=O)c1c(O)c3c(c(O)c1C2=O)C[C@@](O)(C(=O)CO)C[C@@H]3O[C@H]1C[C@H](N)[C@H](O)[C@H](C)O1 [DOX, Doxorubicin] | -7.0 | 744.33 ± 11.66 | -8.6 | 2.74 ± 0.07 | 4.8 | -9.3 | 838.33 ± 13.81 | 728.83 ± 15.41 | -1.1 | -9.4 | 2.97 ± 0.23 | 2.72 ± 0.17 | -8.2 | 734.00 ± 10.90 | -7.9 | 2.76 ± 0.16 | 72 | approximately 2553 mL/h/kg |  |
| COc1cccc2c1C(=O)c1c(O)c3c(c(O)c1C2=O)C[C@@](O)(C(=O)CO)C[C@@H]3O[C@H]1C[C@H](NC(=O)[C@@H](N)CC(C)C)[C@H](O)[C@H](C)O1 [Leu-DOX, N-L-leucyl-doxorubicin] | -1.8 | 2356.67 ± 81.65 | -1.4 | 8.87 ± 0.24 | 9.9 | -5.3 | 2636.67 ± 103.47 | 2275.00 ± 81.67 | 0.9 | -3.2 | 9.08 ± 0.43 | 8.71 ± 0.32 | -2.4 | 2341.67 ± 132.43 | -3.1 | 8.72 ± 0.62 |  |  | remained unaltered throughout the enzymatic digestion procedure |
